# Source: patent US6440672B1, “Compositions and methods for the inhibition of MUC-5 mucin gene expression” (The Regents of the University of California, priority 1998, dated 2002)
# Key:
# [1] = system: MUC 5AC 5' regulatory region (M4-2 luciferase reporter gene construct) in HM3 cells; assay: Inhibition of smoke-induced luciferase activity in HM3 cells transfected with M4-2 reporter construct; format: cell-based, human
# From the text: A DNA fragment extending from −3752 bp to +68 bp was cloned into the MluI/Smal site of the pGL3 vector (Promega). pGL3 contains a luciferase gene downstream from the Smal site. This construct, referred to as M4-2, was deposited with the American Type Culture Collection as ATCC designation 98701. M4-2 was co-transfected with pcDNA3, containing the neomycin resistance gene, into the epithelial cell line HM3. G418-selected colonies were pooled, expanded, and used in luciferase assays.
# HM3 colon carcinoma cells (Kuan, et al. (1987) Cancer Res. 47:5715-5724) or NCIH292 lung carcinoma cells (Levine, et al. (1995) Am. J Respir. Disease 12:196-204) were transfected with the 4.0 Kb MUC 5AC reporter gene construct, M4-2, or the −614 construct from Example 2. Transfection was carried out essentially as described in Felgner et al. (1987), supra. In brief, 2 μl lipofectamine and 1 μg DNA were added to, approximately 5×10^6 cells in 100 μl of Optimen (Gibco) and incubated at room, temperature for about 30 minutes. The mixture was then diluted to 1 ml and added to one culture well of a 6 well plate. G418-selected colonies were pooled, expanded and used in luciferase assays.
# Environmental tobacco smoke was used as a mucomone. Culture medium DME-F 12 (Dulbecco's Modified Eagle's:Haam's F12 at 1:1) was exposed to tobacco smoke at various concentrations, for 6 hours. Exposure of the medium was carried out in open culture dishes in an enclosed container into which tobacco smoke produced by burning cigarettes was introduced in a controlled manner. Smoke concentration was measured in units of total suspended particles/ml (TSP/ml). Transfected cells were transferred into the smoke-exposed medium (in 6-well plates, 5×10^5 cells per well) and incubated for various times. The cells were then harvested, lysed and the luciferase activity determined as described in Li et al. (1997).
# Several possible inhibitors of mucomone-induced mucin production were tested for their effect on the smoke induced luciferase activity described in Example 3. Inhibitors tested included the inhibitors Genistein (Calbiochem), anti-MEK (PD98059; Alessi et al. 1995), PKC-I (Bisindolymaleimide) and PKA-l (KT 5720, Calbiochem). HM3 cells transfected with the 4.0 KB MUC 5AC construct, M4-2, were incubated in smoke-exposed medium as described in Example 3. The inhibitors were added to the cells at the concentrations indicated in Table 2 for various times before the cells were transferred to the smoke medium. Additional inhibitor was added to the smoke medium after the cells were transferred.
# [2] = system: MUC 2 gene transcription in epithelial cells; settings: epithelial cells pre-incubated with inhibitor; cited from earlier work
compound,measurement,setting,value
CN(C)CCCn1cc(C2=C(c3c[nH]c4ccccc34)C(=O)NC2=O)c2ccccc21 [Bisindolymaleimide],"relative luciferase activity (RLA) induced by smoke medium, with vs without inhibitor","[1]; Bisindolymaleimide 2.5 nM to 10 nM, added 1 hr before smoke medium",lower
O=c1c(-c2ccc(O)cc2)coc2cc(O)cc(O)c12 [Genistein],effect of pre-incubation on the PA LPS-induced increase in MUC 2 transcription,[2],abolished the increase in transcription
same,"relative luciferase activity (RLA) induced by smoke medium, with vs without inhibitor","[1]; Genistein 30 μM, added 30 min-2 hr before smoke medium",lower
CCCCCCOC(=O)[C@]1(O)C[C@@H]2O[C@@]1(C)n1c3ccccc3c3c4c(c5c6ccccc6n2c5c31)C(=O)NC4 [KT 5720],"relative luciferase activity (RLA) induced by smoke medium, with vs without inhibitor","[1]; KT 5720 0.1 to 0.5 μM, added 15 min-1 hr before smoke medium",lower
COc1cccc(-c2cc(=O)c3ccccc3o2)c1N [PD98059],"relative luciferase activity (RLA) induced by smoke medium, with vs without inhibitor","[1]; PD98059 50-100 μM, added 1 hr before smoke medium",lower
